“Also recorded” adds a separate entry of the source.
Legend:
[1] = biological target: T1, hTRPA1 (Homo sapiens, UniProt O75762); assay: FLIPR calcium assay, selectivity against hTRPA1 (expressed in CHO); format: cell-based
T1 construct: expressed in transfected cells; host or cells: CHO
Protocol: Similarly, selectivity against hTRPA1 (expressed in CHO) and hTRPV1 (expressed in HEK-293) was assessed using FLIPR® calcium assay (at 100 μM, i.e., 10-fold more than the concentration for maximal response; see FIG. 12). […] For the agonist effect assessment, the effect of AX-8 was evaluated in the absence of the positive control agonist. The maximal signal elicited in the presence of the respective agonist (300 μM mustard oil for TRPA1; 3 μM capsaicin for TRPV1) was set to 100% activation and the signal in the presence of the vehicle control (HB-PS) was set to 0% activation. For the antagonist effect assessment, the channels were activated with the respective positive control agonist (100 μM mustard oil for TRPA1; 0.1 μM capsaicin for TRPV1). The effects of AX-8 to inhibit the signal was examined after agonist stimulation and compared to the respective positive control antagonist (3 μM ruthenium red). For each channel, the signal elicited in the presence of the respective positive control agonist was set to 100 (0% inhibition) and the signal in the presence of the respective positive control antagonist was set to 0 (100% inhibition).

[2] = tested on: refractory chronic cough (RCC); assay: Clinical Trial 2: cough severity and associated sensations, 100 mm VAS; format: in vivo, human
Protocol: Cough Severity was scored on a 100 mm Visual Analog Scale (VAS) at the specified time points. The patient was asked to indicate their assessment by marking (e.g., with a pen) a position along a 100 mm line between two extremes, e.g., “no cough” and “worst cough”. Urge-to-cough was scored on a 100 mm VAS at the specified time points. Throat irritation was scored on a 100 mm VAS at the specified time points. Throat cooling was scored on a 100 mm VAS at the specified time points. At least 24 hours after the Baseline Visit cough monitor has been attached on Day 0, and preferably before 10 am, the following activities were performed by clinic staff (not specified by the order below): • Remove the Baseline Visit cough monitor. • Update medical history. • Record all concomitant medication use. • Inclusion/exclusion criteria review. • If all inclusion and exclusion criteria were met, enroll patient into study. • Vital signs: before dose and 4 hours after dose. • 12-lead ECG (before dose). • Laboratory tests: • Urine drugs-of-abuse testing. • Pharmacokinetic (PK) sample taken. • Provide subject with VAS diary and instruct them to complete VAS assessments at +5 and +6 hours at home (see below). • Before dosing, attach and activate Treatment Visit cough monitor. • Administer the dose of the study drug (preferably before 10 am). • Cough severity VAS assessment: • Prior to dose: • −30 minutes. • After dose: • +1, +2, +3, +4, +5, +6 hours. • Urge-to-cough VAS assessment: • Prior to dose: • −30 minutes. • After dose: • +1, +2, +3, +4, +5, +6 hours. • Throat irritancy VAS assessment: • Prior to dose: • −30 minutes. • After dose: • +1, +2, +3, +4, +5, +6 hours. • Throat cooling VAS assessment: • Prior to dose: • −30 minutes. • After dose: • +1, +2, +3, +4, +5, +6 hours. • GRCS assessment at 4 hours after dose. • Schedule Follow-Up Visit. • Once the Investigator confirmed it was safe to do so, the subject could leave the unit after the assessments 4 hours after dose were complete. At least 24 hours after the Treatment Visit cough monitor has been attached (on Day 1), the following activities were performed by clinic staff (not specified by the order below): • Remove the Treatment Visit cough monitor. • Collect and review the VAS diary for completeness. • Overall impression of the treatment day (24 hours) with: • Cough severity VAS assessment. • Urge-to-cough VAS assessment. • Throat irritancy VAS assessment. • Throat cooling VAS assessment. • GRCS assessment. • Record all adverse events. • Record all concomitant medication use. • Schedule End of Study visit. End of Study Visit (Visit 5): The following procedures and evaluations were performed at the clinic between Day 7 and 14. At this visit, the following procedures and assessments were performed by clinic staff (not specified by the order below): • Cough severity VAS assessment. • Urge-to-cough VAS assessment. • Throat irritancy VAS assessment. • GRCS assessment. • Vital signs. • Weight. • Physical examination. • 12-lead ECG. • Laboratory tests: • Hematology. • Chemistry. • Urinalysis. • Urine pregnancy test for females of childbearing potential. • Record all adverse events. • Record all concomitant medication use.

[3] = tested on: refractory chronic cough (RCC); assay: Clinical Trial 2: Global Rating of Change Scale (GRCS); format: in vivo, human
From the text: The GRCS was used by subjects to assess their overall status for the specified periods (the 4-hour period following dose; and the 24-hour period following dose). It consisted of a […] scale ranging from ‘a very great deal better’ to ‘a very great deal worse’.

[4] = Phase 1 study in healthy volunteers: safety and tolerability; format: in vivo, human; conditions: single dose 5 mg ODT, 12 healthy subjects; no remarkable adverse events

T1 sequence (O75762 whole entry): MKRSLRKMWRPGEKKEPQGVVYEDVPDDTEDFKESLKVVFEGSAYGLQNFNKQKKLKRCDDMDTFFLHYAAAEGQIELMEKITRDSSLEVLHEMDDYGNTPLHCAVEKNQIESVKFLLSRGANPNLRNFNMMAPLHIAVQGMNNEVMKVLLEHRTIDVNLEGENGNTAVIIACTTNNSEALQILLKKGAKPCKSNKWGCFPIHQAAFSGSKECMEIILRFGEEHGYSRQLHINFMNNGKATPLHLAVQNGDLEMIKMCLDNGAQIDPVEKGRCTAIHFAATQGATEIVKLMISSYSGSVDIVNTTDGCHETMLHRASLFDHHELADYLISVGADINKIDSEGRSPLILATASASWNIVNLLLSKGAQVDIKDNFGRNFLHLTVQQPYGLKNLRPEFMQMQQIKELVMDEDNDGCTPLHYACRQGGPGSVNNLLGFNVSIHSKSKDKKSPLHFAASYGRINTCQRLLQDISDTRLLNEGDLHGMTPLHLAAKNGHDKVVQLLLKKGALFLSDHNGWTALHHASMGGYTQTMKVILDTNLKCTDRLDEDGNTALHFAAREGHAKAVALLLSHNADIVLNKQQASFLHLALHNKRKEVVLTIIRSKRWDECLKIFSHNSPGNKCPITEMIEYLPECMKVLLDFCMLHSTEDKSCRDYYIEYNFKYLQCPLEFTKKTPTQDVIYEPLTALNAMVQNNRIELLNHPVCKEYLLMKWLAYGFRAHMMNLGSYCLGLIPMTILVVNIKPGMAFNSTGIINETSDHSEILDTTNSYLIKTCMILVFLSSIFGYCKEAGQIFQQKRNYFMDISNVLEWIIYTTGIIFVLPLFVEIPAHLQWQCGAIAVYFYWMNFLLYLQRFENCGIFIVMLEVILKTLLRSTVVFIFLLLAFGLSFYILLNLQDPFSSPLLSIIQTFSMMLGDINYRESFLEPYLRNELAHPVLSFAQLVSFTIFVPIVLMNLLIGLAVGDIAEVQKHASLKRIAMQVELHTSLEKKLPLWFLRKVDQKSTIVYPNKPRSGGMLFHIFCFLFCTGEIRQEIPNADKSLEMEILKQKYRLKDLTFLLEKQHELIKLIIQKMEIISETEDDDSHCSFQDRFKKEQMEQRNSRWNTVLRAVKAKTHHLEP

CC(C)OC(=O)CNC(=O)[C@@H]1C[C@H](C)CC[C@H]1C(C)C [AX-8, [((1R,2S,5R)-2-isopropyl-5-methyl-cyclohexanecarbonyl)-amino]-acetic acid isopropyl ester]
antagonistic interaction with TRPA1 ([1]; at 100 μM, channel activated with 100 μM mustard oil, control antagonist 3 μM ruthenium red): no agonistic or antagonistic interactions | agonistic activity on hTRPA1 ([1]; concentrations ≤100 μM, % of mustard oil maximal response, n=4): no agonistic or antagonistic interactions; also recorded: no significant agonistic activity on hTRPA1 | Urge-to-Cough VAS, Median, Follow-Up (Visit 4) ([2]; >24-hour period after treatment, n=11, Screening 51.5): 46.0 mm | Throat Irritation VAS, Median, Follow-Up (Visit 4) ([2]; >24-hour period after treatment, n=11, Screening 55.0): 9.0 mm | Cough Severity VAS, Median, Follow-Up (Visit 4) ([2]; >24-hour period after treatment, n=11, Screening 61.5): 47.0 mm | Cough Severity VAS, Median, End of Study (Visit 5) ([2]; Day 7 to 14, n=11): 64.0 mm | Throat Irritation VAS, Median, End of Study (Visit 5) ([2]; Day 7 to 14, n=11): 47.0 mm | Urge-to-Cough VAS, Median, End of Study (Visit 5) ([2]; Day 7 to 14, n=11): 57.0 mm | time of apparent maximum improvement in urge-to-cough ([2]; FIG. 8): about 3 hours | throat cooling VAS time course ([2]; FIG. 10): increase only at 30 minutes | cough severity VAS time course ([2]; hourly for 6 hours after treatment, FIG. 7): reduction from the first hour that persisted for the 6 hours of monitoring | urge-to-cough VAS time course ([2]; hourly for 6 hours after treatment, FIG. 8): improvement from the first hour that persisted for the 6 hours of monitoring | throat irritation VAS time course ([2]; hourly for 6 hours after treatment, FIG. 9, baseline lower on treatment day): improvement from the first hour that persisted for the 6 hours of monitoring | GRCS Cough Frequency: patients rating about the same, n (%) ([3]; 4 hours after treatment, n=12): 7 (58.3%) | GRCS Cough Frequency: patients rating better, n (%) ([3]; 4 hours after treatment, n=12): 4 (33.3%) | GRCS Cough Frequency: patients rating worse, n (%) ([3]; 4 hours after treatment, n=12): 1 (8.3%) | GRCS Cough Severity: patients rating about the same, n (%) ([3]; 4 hours after treatment, n=12): 6 (50%) | GRCS Cough Severity: patients rating better, n (%) ([3]; 4 hours after treatment, n=12): 5 (41.7%) | GRCS Cough Severity: patients rating worse, n (%) ([3]; 4 hours after treatment, n=12): 1 (8.3%) | GRCS Cough Frequency: patients rating about the same, n (%) ([3]; 24 hours after treatment, n=11): 6 (54.5%) | GRCS Cough Frequency: patients rating better, n (%) ([3]; 24 hours after treatment, n=11): 4 (36.4%) | GRCS Cough Frequency: patients rating worse, n (%) ([3]; 24 hours after treatment, n=11): 1 (9.1%) | GRCS Cough Severity: patients rating about the same, n (%) ([3]; 24 hours after treatment, n=11): 6 (54.5%) | GRCS Cough Severity: patients rating better, n (%) ([3]; 24 hours after treatment, n=11): 4 (36.4%) | GRCS Cough Severity: patients rating worse, n (%) ([3]; 24 hours after treatment, n=11): 1 (9.1%) | safety and tolerability [4]: well tolerated
